The record followed here is patent US20250241905A1, “3-BETA-HSD1 INHIBITORS AND COMPOSITIONS AND USES THEREOF” (The Cleveland Clinic Foundation, priority 2022, published 2025).

In general, IC50 refers to the concentration needed to halve the response being measured. In general, GI50 refers to the concentration at which growth is held to half of that of the control.

In one test the test system is C4-2 flank tumor. Kind of test: CRPC C4-2 flank tumor model in mice. It is filed as in vivo. The following applies: orchiectomized NSG male mice with DHEA pellets, 100 mg/kg in water with 20% Captisol, oral gavage twice daily. The protocol:
The mouse study was performed under a protocol approved by the Institutional Animal Care and Use Committee of the Cleveland Clinic Lerner Research Institute. All NOD scid gamma (NSG) male mice (6 to 8 weeks old) were purchased from the Jackson Laboratory. 10^7 C4-2 cells were injected subcutaneously into mice with matrigel (total injection volume 100 μL). Once tumors reached 100 mm^3 (length×width×height×0.52), mice were surgically orchiectomized and implanted with 5 mg 90-day sustained-release DHEA pellets (Innovative Research of America) to mimic human adrenal DHEA production in patients with CRPC, then the mice were arbitrarily (but not strictly randomized) assigned to vehicle (n=6), Compound 1 (n=6), or Compound 5 (n=6). The mice were given vehicle, Compound 1 (100 mg/kg in water with 20% Captisol), or Compound 5 (100 mg/kg in water with 20% Captisol) by oral gavage twice daily.

Another test has as its target human 3β-HSD1. The experiment in a line: 3β-HSD1 inhibition, colorimetric NADH detection assay. It is filed as biochemical. The following applies: purified recombinant human 3β-HSD1, 50 μM DHEA, 2 mM NAD+, 1 hour, room temperature, duplicate 10-point CRC; read-out: IC50 (nM), in vitro NADH inhibition. The text has this:
Enzymatic turnover was quantified through NADH generation by purified, recombinant human 3β-HSD1 (expressed in Sf9 insect cells) in the presence of steroidal substrate trans-Dehydroandrosterone (DHEA) that was placed slightly above the experimentally determined Km and saturating amounts of co-factor Nicotinamide adenine dinucleotide (NAD^+). The sequence of recombinant human 3β-HSD1 used is […] […] […] […] […] […] […] (SEQ ID NO: 3). DHEA and NAD+ were enzymatically converted to androstenedione and NADH, respectively. Final NADH concentrations were spectroscopically quantified using a commercially available Amplite™ Colorimetric NADH Assay Kit which utilizes an NADH probe with an absorbance wavelength of 460 nm. Enzymatic assays with a final volume of 25 μL were ran in a 384-well, Greiner Bio-One UV-STAR® assay plate in 50 mM TRIS pH 8.0 assay buffer. […] Compound stocks at 10 mM in DMSO were serial diluted 5-fold in DMSO to generate an ECHO® compatible source plate. 125 nL of DMSO, Trilostane, or serial diluted compounds were then acoustically transferred into an empty UV-STAR® assay plate to give a final assay concentration of 0.5% v/v DMSO. The stamp volume and dilution scheme can be adjusted to accommodate compound potency. The assay can tolerate up to a 5% v/v DMSO final assay concentration. 15 μL of 1 μg purified 3β-HSD1 and 50 μM DHEA (final assay volume concentration) was dispensed per well into the stamped plate, centrifuged for 1 minute at 1000 RPM, covered, and allowed to incubate for 15 minutes at room temp. Enzymatic reactions were initiated upon the addition of 10 μL of NAD^+ diluted in assay buffer to give a final assay volume concentration of 2 mM. The assay plate was centrifuged for 1 minute at 1000 RPM, covered, and incubated at room temperature for 1 hour. 25 μL Amplite™ Colorimetric NADH Assay Kit detection solution (prepared as recommended) was added to all reaction wells, the plate centrifuged for 1 minute at 1000 RPM, covered, and incubated for 15 minutes. Final absorbance values (λ=460 nm) are spectroscopically determined on BioTek® Cytation5 or Synergy4 plate readers. […] From the background subtracted values, the non-inhibited enzyme signal (DMSO treated) was averaged from 32 control reactions. The percent inhibition value was calculated by: % inhibition=(1−((background subtracted inhibited reaction)/(background subtracted non-inhibited average)))*100. The resulting percent inhibition was then plotted in duplicate against corresponding concentration values. The resulting CRCs were fit with a four parameter, variable slope log (inhibitor) vs response equation where Y=bottomvalue+ (topvalue−bottomvalue)/(1+10^((log IC50−X)*Hillslope)) to determine the IC50 values for tested compounds.

Test [1] deals with Androstenedione synthesis in C4-2 prostate cancer cells. Kind of test: Cell line steroid metabolism: androstenedione synthesis inhibition (HPLC, [3H]-labeled androgens). It is filed as cell-based. The conditions noted are these: Homo sapiens, serum-free RPMI-1640, [3H]-labeled androgens 25 nM. Here is the method: Cells were seeded and incubated in 12-well plates with 0.15 million cells/well in RPMI-1640 medium with 10% FBS for ˜24 h at 37° C. Culture medium was then replaced with serum-free RPMI-1640 and a mixture of radioactive ([3H]-labeled) and non-radioactive androgens (final concentration, 25 nM; ˜600,000 cpm/well; PerkinElmer, Waltham, MA) plus inhibitor compounds at specified concentrations was added. […]
High-performance liquid chromatography (HPLC) analysis was performed on a Waters 1525 HPLC system (Waters Corp., Milford, MA). Dried samples were reconstituted in 50% methanol and injected into the HPLC. Steroids were separated on a Luna 150×4.6 mm, 3.0 μm particle size C18 reverse-phase column (Phenomenex, Torrance, CA) with a methanol/water gradient at 50° C. Column effluent was mixed with Liquiscint scintillation cocktail (National Diagnostics, Atlanta, GA) and analyzed using a β-RAM model 4 in-line radioactivity detector (LabLogic, Brandon, FL).

Test [2] has as its system C4-2 prostate cancer cells. The experiment in a line: Cellular viability of C4-2 cells (CellTiter-Glo). It is filed as cell-based, human. The following applies: 6 days, 1% FBS + DHEA, read-out: GI50 (μM), growth inhibition. Here is the method: C4-2 cells were routinely maintained in RPMI+2 mM L-Glutamine+1× Anti-Anti+10% FBS. C4-2 cells were harvested by trypsinization for 90 seconds in 0.25% Trypsin-EDTA, counted with a Vi-Cell Blu cell counter (Beckman Coulter), and diluted into Complete Viability Media (RPMI+2 mM L-Glutamine+1× Anti-Anti+1% FBS+[…]) at a density of 10,000 cells/mL. 12-point, two-fold dilution series of test compounds (starting at 10 mM) were prepared in 100% DMSO, and then 450 nL of the dilution series were stamped in triplicate into 384-well, white, opaque bottom, TC-treated CulturPlate™ (Perkin Elmer 6007680) using acoustic dispensing (Labcyte Echo 550). 50 μL/well of the diluted C4-2 cells (500 cells/well) were added directly to the plates containing dispensed compounds, yielding a final [DMSO] of 0.9% and a final top [compound] of 90 μM. The plates were centrifuged for 1 min at 500×g and then incubated for 6 days at 37° C., 5% CO2. Cell density at the end of the assay was measured using 35 μL/well CellTiter-Glo® (Promega) per the manufacturer's recommendations, and total luminescence was measured on a Cytation 5 plate reader. Raw luminescence values were normalized from 0 (empty Viability Media+0.9% DMSO, no cells) to 100 (Cells+0.9% DMSO, maximum proliferation), triplicate values were averaged, and dose-response curves were fit and G150 values extracted using variable slope nonlinear regression in GraphPad Prism.
For orientation: In ATP-based viability assays light output follows the ATP content of the culture.

Where two headings read alike, the source gives them in different places.

human 3β-HSD1, sequence (P14060 2-373 limits assumed): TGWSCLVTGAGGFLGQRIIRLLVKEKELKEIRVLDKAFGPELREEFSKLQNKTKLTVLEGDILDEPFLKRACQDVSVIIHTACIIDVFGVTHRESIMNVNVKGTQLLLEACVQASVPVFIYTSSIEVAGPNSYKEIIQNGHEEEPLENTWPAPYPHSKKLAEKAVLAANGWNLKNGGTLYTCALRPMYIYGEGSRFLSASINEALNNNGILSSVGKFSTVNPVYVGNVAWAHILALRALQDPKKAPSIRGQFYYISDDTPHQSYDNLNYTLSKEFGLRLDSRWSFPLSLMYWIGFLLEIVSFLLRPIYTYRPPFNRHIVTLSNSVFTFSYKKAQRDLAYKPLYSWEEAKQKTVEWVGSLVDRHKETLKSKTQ

Regarding `O=C1CCCc2nc(-c3cc(F)c(O)c(F)c3)ccc21` [Compound 1, 2-(3,5-difluoro-4-hydroxyphenyl)-7,8-dihydroquinolin-5(6H)-one], the “tumor volume compared to vehicle control” value in the test on C4-2 flank tumor is “reduction in tumor volume”. Besides, the results for the half-maximal inhibitory concentration (IC50) (on human 3β-HSD1; in test [1]) were 62 nM and 83 nM, respectively. Besides, the GI50 in test [2] (Homo sapiens, 144 h) is 53 µM.

As to `O=C1CCCc2nc(-c3ccc(O)c(F)c3)ccc21` [Compound 2, 2-(3-fluoro-4-hydroxyphenyl)-7,8-dihydroquinolin-5(6H)-one], the IC50 on human 3β-HSD1 is 45 nM; in test [1] it was 14 nM. Besides, the GI50 in test [2] (Homo sapiens, 144 h) is 59 µM.

In the case of `CC1(C)CCc2nc(-c3cc(F)c(O)c(F)c3)ccc2C1=O` [Compound 5, 2-(3,5-difluoro-4-hydroxyphenyl)-6,6-dimethyl-7,8-dihydroquinolin-5(6H)-one], the “tumor volume compared to vehicle control” value in the test on C4-2 flank tumor is recorded as “reduction in tumor volume”. Besides, the IC50 at human 3β-HSD1 is 71 nM; in test [1], 1.4 nM. The GI50 in test [2] (Homo sapiens, 144 h) came to 26 µM.

As to `CC1CCc2nc(-c3cc(F)c(O)c(F)c3)ccc2C1=O` (stereo not shown) [Compound 7, 2-(3,5-difluoro-4-hydroxyphenyl)-6-methyl-7,8-dihydroquinolin-5(6H)-one], the 50% inhibitory concentration (IC50) at human 3β-HSD1 came to 64 nM; in test [1], 7.2 nM. In addition, in test [2] (Homo sapiens, 144 h), the GI50 amounted to 37 µM.

With `CCC1CCc2nc(-c3cc(F)c(O)c(F)c3)ccc2C1=O` (stereo not shown) [Compound 8, 2-(3,5-difluoro-4-hydroxyphenyl)-6-ethyl-7,8-dihydroquinolin-5(6H)-one], the IC50 on human 3β-HSD1 came out at 105 nM. Further, in test [2] (Homo sapiens, 144 h), the GI50 came to 16 µM.

In the case of `O=C1c2ccc(-c3cc(F)c(O)c(F)c3)nc2CCC1Cc1ccccc1` (stereo not shown) [Compound 9, 6-benzyl-2-(3,5-difluoro-4-hydroxyphenyl)-7,8-dihydroquinolin-5(6H)-one], the results for the IC50 (at human 3β-HSD1; in test [1]) were 37 nM and 10 nM, respectively. The GI50 in test [2] (Homo sapiens, 144 h) is 6 µM.

`O=C1c2ccc(-c3cc(F)c(O)c(F)c3)nc2CCC1c1ccccc1` (stereo not shown) [Compound 10, 2-(3,5-difluoro-4-hydroxyphenyl)-6-phenyl-7,8-dihydroquinolin-5(6H)-one]: the IC50 on human 3β-HSD1 worked out at 79 nM. For the same compound, the 50% growth inhibitory concentration (GI50) in test [2] (Homo sapiens, 144 h) is 10 µM.

On to `O=C1c2ccc(-c3cc(F)c(O)c(F)c3)nc2CCC12CC2` [Compound 11], for which the IC50 at human 3β-HSD1 was 68 nM; in test [1], 4.8 nM. Moreover, the 50% growth inhibitory concentration (GI50) in test [2] (Homo sapiens, 144 h) is 10 µM.

In the case of `CC1(C)CCc2nc(-c3cc(F)c(O)c(F)c3)ccc2C1O` (stereo not shown) [Compound 12], on human 3β-HSD1, the IC50 amounted to 2560 nM. Moreover, in test [2] (Homo sapiens, 144 h), the 50% growth inhibitory concentration (GI50) was 61 µM.

Take `CC1(C)CCc2nc(-c3cc(F)c(O)c(F)c3)ccc2C1(C)O` (stereo not shown) [Compound 16]: on human 3β-HSD1, the half-inhibitory concentration (IC50) is 376 nM. Further, the 50% growth inhibitory concentration (GI50) in test [2] (Homo sapiens, 144 h) was determined as 20 µM.

For `CC1(C)CCc2nc(-c3cc(F)c(O)c(F)c3)ccc2C1(O)C1CC1` (stereo not shown) [Compound 20], on human 3β-HSD1, the 50% inhibitory concentration (IC50) came to 331 nM. Besides, the 50% growth inhibitory concentration (GI50) in test [2] (Homo sapiens, 144 h) worked out at 30 µM.

In the case of `CC1(C)CCc2nc(-c3cc(F)c(O)cc3F)ccc2C1=O` [Compound 25], the results for the IC50 (on human 3β-HSD1; in test [1]) were 84 nM and 1 nM, respectively.

As for `O=C1c2ccc(-c3cc(F)c(O)c(F)c3)nc2CCC1(F)F` [Compound 41], the figures for the 50% inhibitory concentration (IC50) (on human 3β-HSD1; in test [1]) were 79 nM and 68 nM, respectively.

Consider `CC[C@@]1(C)CCc2nc(-c3cc(F)c(O)c(F)c3)ccc2C1=O` [Compound 55], for which the IC50 is 89 nM at human 3β-HSD1 and 0.7 nM in test [1].

Take `CCC1(CC)CCc2nc(-c3cc(F)c(O)c(F)c3)ccc2C1=O` [Compound 59]: the IC50 is 71 nM on human 3β-HSD1 and 3.8 nM in test [1].

Regarding `COCCN1CC(C)(C)C(=O)c2ccc(-c3cc(F)c(O)c(F)c3)nc21` [Compound 83], the IC50 on human 3β-HSD1 worked out at 556 nM.

For the compound `CC1(C)CCc2nc(-c3ccc(O)c(F)c3)ncc2C1=O` [Compound 84], the half-inhibitory concentration (IC50) at human 3β-HSD1 amounted to 288 nM.

As to `CC1(C)CCc2nc(-c3cc(F)c(O)cc3F)ncc2C1=O` [Compound 85], the IC50 at human 3β-HSD1 worked out at 1540 nM.

Turning to `CC1(C2(O)COC2)CCc2nc(-c3cc(F)c(O)c(F)c3)ccc2C1=O` (stereo not shown) [Compound 86], on human 3β-HSD1, the IC50 came to 1420 nM.

As to `COC1(C(C)C)CCCc2nc(-c3cc(F)c(O)c(F)c3)ccc21` (stereo not shown) [Compound 87], at human 3β-HSD1, the half-maximal inhibitory concentration (IC50) turned out to be 45 nM.

Consider `CC1(C(F)(F)C(F)(F)F)CCc2nc(-c3cc(F)c(O)c(F)c3)ccc2C1=O` (stereo not shown) [Compound 88], for which, at human 3β-HSD1, the 50% inhibitory concentration (IC50) amounted to 78 nM.

As to `CC1(CC(F)(F)F)CCc2nc(-c3cc(F)c(O)c(F)c3)ccc2C1=O` (stereo not shown) [Compound 89], the IC50 on human 3β-HSD1 was determined as 188 nM.

Take `CCOC1(c2ccccc2)CCCc2nc(-c3cc(F)c(O)c(F)c3)ccc21` (stereo not shown) [Compound 90]: at human 3β-HSD1, the IC50 came to 52 nM.

Consider `COC1(c2cccnc2)CCCc2nc(-c3cc(F)c(O)c(F)c3)ccc21` (stereo not shown) [Compound 91], for which the IC50 on human 3β-HSD1 came out at 25 nM.

For the compound `Oc1c(F)cc(-c2ccc3c(n2)CCCC3(O)c2cccnc2)cc1F` (stereo not shown) [Compound 92], the half-inhibitory concentration (IC50) on human 3β-HSD1 was 68 nM.

With `COC1(c2ccccn2)CCCc2nc(-c3cc(F)c(O)c(F)c3)ccc21` (stereo not shown) [Compound 93], the IC50 at human 3β-HSD1 was determined as 131 nM.

Consider `Oc1c(F)cc(-c2ccc3c(n2)CCCC3(O)c2ccccn2)cc1F` (stereo not shown) [Compound 94], for which the IC50 on human 3β-HSD1 came out at 238 nM.

Turning to `COC1(c2ncco2)CCCc2nc(-c3cc(F)c(O)c(F)c3)ccc21` (stereo not shown) [Compound 95], the IC50 at human 3β-HSD1 stood at 100 nM.

Take `C[C@]12CCC(=O)C=C1CC[C@@H]1[C@@H]2CC[C@]2(C)C(c3cccnc3)=CC[C@@H]12` [D4-Abiraterone, reference compound]: the 50% growth inhibitory concentration (GI50) in test [2] is 2.4 ± 0.4 µM.
